# Source: the METLIN SMRT retention time set (Domingo-Almenara et al. 2019)
# Experiment: gradient 5% acetonitrile 3 min, to 50% in 2 min, to 85% in 15 min, held 3 min, 100 µL/min
# Settings: column: Zorbax Extend-C18 2.1 x 50 mm; eluents: water / acetonitrile, 0.1% formic acid
# Procedure, shortened: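 The mobile phases were water and acetonitrile, each with 0.1% formic acid, pumped at 100 μL/min through a Zorbax Extend-C18 column (2.1 × 50 mm, 1.8 μm). Pure standards were injected as mixtures of ~100 molecules and detected by a quadrupole time-of-flight mass spectrometer in positive and negative ionization mode. Retention time came from computationally picked adduct peaks, each inspected by hand.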
row,SMILES,RP-LC retention time
1,COc1nn(C)cc1C(=O)NCCn1nc(-c2cccs2)ccc1=O,605 s
2,CN1CCC(N2CCN(S(=O)(=O)c3cc(-c4nc(C(C)(C)C)cs4)cs3)CC2)CC1,660 s
3,COc1ccc(-c2ccc3nc(N4CCC(C(=O)NC5CC5)CC4)sc3n2)cc1,746 s
4,Cn1nc(CNC(=O)c2n[nH]c(=O)c3ccccc23)c2c1CCN(S(C)(=O)=O)C2,609 s
5,O=C1CN(C(=O)c2ccccc2F)c2ccccc2N1,645 s
6,c1ccc(-c2noc(NCCc3ccsc3)n2)cc1,969 s
7,CCNc1cc(N2CCCC(CCC(=O)Nc3ccc(OC)cc3)C2)ncn1 (centres undefined),659 s
8,CC(C)(C)NC(=O)CSc1nc(-c2cccs2)cc(C(F)(F)F)c1C#N,991 s
9,COC(=O)c1ccc(NC(=O)CSc2nnc(-c3cccs3)o2)cc1,648 s
10,Cc1coc2cc3oc(=O)c(CC(=O)N[C@H](Cc4c[nH]c5ccccc45)C(=O)O)c(C)c3cc12,772 s
11,Cc1c(Cl)cccc1NC(=O)CCc1ccc2nc[nH]c2c1,614 s
12,Cc1ccn2cc(-c3ccc(NC(=O)c4ccc5ccccc5c4)cc3)nc2n1,710 s
13,O=C(CCNc1cnc2cnccn12)NCc1cccc(Cl)c1,590 s
14,CCOc1ccccc1NC(=O)N1CCC2(CC1)NC(=O)c1ccc(F)cc1N2C,817 s
15,Cc1ccc(CN2CCC(N3CC(F)(F)C[C@H]3COc3cccnc3)CC2)s1,587 s
16,Cn1cc(S(=O)(=O)NCc2cccs2)c(=O)n(C)c1=O,635 s
17,Cc1cccc(-c2noc(C3CCCN3C(=O)NCC3CCCO3)n2)c1 (centres undefined),818 s
18,CC(C)NC(=O)N(C1CC1)C1CCOC2(CCN(C(=O)C3(c4ccccc4)CC3)CC2)C1 (centres undefined),865 s
19,O=C(NCc1ccco1)c1c2c(nc3ccccc13)C(=O)N(C1CCCCC1)C2,808 s
20,O=C(Cc1cccc(F)c1)N1CC(N2CC(C(=O)N3CCCC3)CC2=O)C1 (centres undefined),648 s
21,NC(=O)c1nnn(Cc2cccc([N+](=O)[O-])c2)c1N,616 s
22,CCCCN(C)C(=O)C1CCN(S(=O)(=O)c2ccc3c(c2)sc(=O)n3C)CC1,822 s
23,Cc1c(CCC(=O)NCC(=O)N[C@@H](C(=O)O)C(C)C)c(=O)oc2c(C)c(O)ccc12,636 s

row,SMILES,RP-LC retention time
1,Cc1ccc2c(c1)N(S(C)(=O)=O)CCC(C(=O)Nc1ccc(Cl)cc1)O2 (centres undefined),1020 s
2,Cc1cc(S(=O)(=O)N2CCCC(Cn3cnc4cccnc43)C2)ccc1F (centres undefined),787 s
3,CC(C)N1Cc2cc(C(=O)N3CCC(Cc4ccccc4)CC3)sc2C1,949 s
4,O=S(=O)(c1cccnc1)N1CC(F)(F)C[C@H]1c1nc(C2CC2)no1,815 s
5,O=C(Nc1ccccc1)C1CCCN(S(=O)(=O)c2cc(-c3noc(C4CCC4)n3)cs2)C1 (centres undefined),1140 s
6,COc1ccc(CNC(=O)C2CCCN(c3nccnc3Sc3ccccc3)C2)c(OC)c1 (centres undefined),1020 s
7,CCOC(=O)c1ccc(NC(=O)c2cc3ccccc3c(=O)s2)cc1,947 s
8,CCNC(=O)C1CCCN(c2nc3ncn(CC(=O)Nc4ccc(F)c(F)c4)c(=O)c3s2)C1 (centres undefined),670 s
9,CCN(CC)CCCNC(=O)CN1C(=O)CCn2nc(-c3cn(C)c4ccccc34)cc21,613 s
10,O=C(Nc1ccc(F)cc1)C1CCCN(c2ccc3cc(S(=O)(=O)N4CCCC4)ccc3n2)C1 (centres undefined),634 s
11,O=C1COc2ccccc2N1Cc1nc(-c2ccc(Br)cc2)no1,1110 s
12,CCc1cc(=O)n(CC(=O)NCc2ccc3c(c2)OCO3)c(-c2ccccc2)n1,1000 s
13,CCN1CCCn2cc(S(=O)(=O)NCc3ccccc3Cl)cc2C1=O,750 s
14,O=C(NC1CCCCC1)C1(CCO)CC12CCN(c1ncccn1)CC2 (centres undefined),651 s
15,N#CSc1ccc(NC(=O)c2ccc(-n3cnnn3)cc2)cc1,754 s
16,Cc1ccn2cc(-c3ccc(NS(=O)(=O)c4ccc(F)cc4)cc3)nc2n1,649 s
17,O=C(c1ccc2c(c1)OCO2)N1CCC(n2nc(-c3ccsc3)ccc2=O)CC1,764 s
18,Cc1ccc(-c2nnc(-c3ccccc3)o2)cc1S(=O)(=O)N(C)C,950 s
19,CS(=O)(=O)N1CCC(OC2CCN(C(=O)NCc3ccc(F)cc3)CC2)CC1,730 s
20,CC1CN2C=NC(N3CCN(C(=O)Nc4cc(F)cc(F)c4)CC3)=CC2=N1 (centres undefined),664 s
21,Fc1ccc(-c2csc(Cc3nc(-c4ccccc4Cl)no3)n2)cc1,1260 s
22,O=C(CCc1conc1-c1ccc(F)cc1)NCc1ccccc1,865 s
23,Cc1ccc(-n2c(N3CCCC(C(=O)NCC(C)c4ccccc4)C3)nc3ccsc3c2=O)cc1 (centres undefined),961 s

row,SMILES,RP-LC retention time
1,COC(=O)c1ccc2c(=O)n(-c3ccc(Cl)cc3)c(N3CCN(c4ccccn4)CC3)nc2c1,753 s
2,COC(=O)C(C)(N)Cc1ccc(O)cc1 (centres undefined),573 s
3,Cc1ccccc1C(=O)Nc1ccc(C(=O)N2CCCC(O)c3cc(Cl)ccc32)c(C)c1 (centres undefined),899 s
4,CCCOc1ccc(CNC(=O)C2CCN(c3cc(Oc4ccccc4)ncn3)CC2)cc1,988 s
5,CCC(C(=O)NCCOc1ccc2nnc(-c3ccc(OC)cc3)n2n1)c1ccccc1 (centres undefined),735 s
6,Cc1ccc(CNC(=O)CCc2ccc3cc[nH]c3c2)cc1,879 s
7,O=C(NCc1csc(C2CCCN(C(=O)c3ccc(F)cc3Cl)C2)n1)C1CC1 (centres undefined),756 s
8,COc1ccc(-c2noc(C3CCCN3C(=O)Nc3ccccc3Cl)n2)cc1 (centres undefined),920 s
9,Cc1cccc(-c2nnc(CC(=O)NC3CCCC3)o2)c1,658 s
10,O=C(Cn1nc(N2CCCC2)c2ccccc2c1=O)NCc1ccccc1,837 s
11,O=C([C@H]1C[C@@H](F)CN1S(=O)(=O)c1cccc(C(F)(F)F)c1)N1CCOCC1,769 s
12,Cc1ccccc1-c1noc(Cn2c(=O)n(C(C)C)c(=O)c3ccccc32)n1,1160 s
13,O=C(NC1CCCC1)c1nc(C(=O)N2CCN(c3ncccn3)CC2)cs1,759 s
14,CCCN(CC(=O)N(Cc1ccco1)CC1CCCO1)C(=O)c1ccc2c(c1)OCO2 (centres undefined),770 s
15,CCS(=O)(=O)c1ccc2c(c1)N(Cc1nc(-c3cccc(C)c3)no1)C(=O)CO2,926 s
16,O=C(Nc1cc(-c2cccc(F)c2)no1)C1CCCN(c2ncnc3c2nc2n3CCCCC2)C1 (centres undefined),991 s
17,c1cc(N2CCCCC2)ncc1-c1noc(CN2CCC3(CC2)OCCO3)n1,637 s
18,O=C(CCN1C(=O)c2ccccc2C1=O)OCC(=O)c1ccc(Cl)cc1Cl,954 s
19,CN1C(=O)C2CCCCN2c2ccc(C(=O)NCCc3c[nH]c4ccc(Cl)cc34)cc21 (centres undefined),921 s
20,Cc1cc(C)c(CNS(=O)(=O)c2cc(-c3nc(C)c(C)s3)cs2)c(C)c1,1310 s
21,COc1ccccc1-c1nn2c(-c3cc(C(C)C)[nH]n3)nnc2s1,872 s
22,O=C(CCn1c(CO)nc2ccccc21)c1ccccc1,578 s
23,CCCNC(=O)CCc1c(C)n(C)c2nc(-c3ccccc3)nn2c1=O,665 s

row,SMILES,RP-LC retention time
1,CN1C(=O)C2CCCCN2c2ccc(C(=O)NCCCN3CCCC3)cc21 (centres undefined),586 s
2,COc1ccccc1N1CCN(C(=O)c2cc(C3CC3)[nH]n2)CC1,699 s
3,CCCOc1ccc(CNC(=O)c2nc(N3CCSCC3)c3cn(C)nc3n2)cc1,798 s
4,COc1ccc(CN2CCC(C3CCN(S(C)(=O)=O)CC3)C2)cc1OC (centres undefined),580 s
5,CC(=O)N1CCc2c(c(CNC(=O)c3cncn3C)nn2C)C1,558 s
6,CNC(=O)CN(C)C(=O)c1cc2c(s1)N(CC1CC1)CCCC2,818 s
7,O=C(Cc1nnc(-c2ccccc2)o1)N1CCSCC1,698 s
8,Cc1c(S(=O)(=O)NCC2CC2)c(C)n(C)c1-c1nnc(C2CCC2)o1,899 s
9,Cc1cccc(-c2[nH]ncc2-c2ccc3ncccc3n2)n1,635 s
10,O=C(C1CCC(=O)N1S(=O)(=O)c1ccccc1)N1CCN(c2ccccn2)CC1 (centres undefined),602 s
11,O=C(NC1CCc2ccccc21)C1CCN(c2ncccc2-c2nc(-c3cccc(F)c3)no2)CC1 (centres undefined),1160 s
12,CCS(=O)(=O)Nc1ccc(-c2noc(C(C)NC(=O)c3ccccc3)n2)cc1 (centres undefined),777 s
13,COc1cccc(NC(=O)Cn2c(=O)c(CCC(=O)NC3CCCC3)nc3ccccc32)c1,825 s
14,O=C(Nc1ccc2ncnc(N3CCCCC3)c2c1)c1ccc(Br)o1,704 s
15,CCCN(CC1CCOC1)C(=O)c1ccc(F)cc1F (centres undefined),743 s
16,COCCCn1c(=O)c2ccccc2n(Cc2nc(-c3ccc(OC)c(OC)c3)no2)c1=O,876 s
17,O=C(Nc1ccc(C(F)(F)F)cn1)c1cccc2cccnc12,1090 s
18,CCN(CC)c1nc(C(=O)NCc2ccncc2)nc2nc(C)cc(C)c12,511 s
19,Cc1ccc(-n2cc(C3=CCN(CC(=O)NCc4cccs4)CC3)cn2)cc1C,735 s
20,CC(=O)N1CCc2cc(N3CC(C(=O)NCc4cccc(Cl)c4)CC3=O)ccc21 (centres undefined),702 s
